± gives the expanded uncertainty stated by the source.

For data set [1] the following is noted: 358.15 K, 101 kPa, Liquid.
Data set [2] can be described thus: xn = mol fraction of the nth substance listed. To be noted: 358.15 K; 101 kPa; Liquid; Falling or rolling sphere viscometry; x1 = 1.
Data set [3] in a line: molar heat capacity at constant pressure; wn = mass fraction of the nth substance listed. The note with it: 358.15 K; 101 kPa; Liquid; Small sample (50 mg) DSC; w1 = 1.

With `CCCCn1cc[n+](C)c1.CS(=O)(=O)[O-]` [1-butyl-3-methylimidazolium methanesulfonate], the electrical conductivity in data set [1] (Alternating current cell with electrodes) turned out to be 0.805 ± 0.14 S/m. Besides, in data set [1] (Vibrating tube method), the mass density (as a rule, mass per unit of volume) worked out at 1134 ± 2 kg/m3.
Consider `O` [water] + CCCCn1cc[n+](C)c1.CS(=O)(=O)[O-], for which, in data set [2], the viscosity – broadly, the internal friction of a fluid under shear – stood at 0.334 ± 0.033 mPa·s. Besides, the “molar heat capacity at constant pressure” value in data set [3] is 4.12 ± 0.23 J/K/mol.

The values are drawn from the NIST ThermoML archive (doi:10.1021/je300045c).
